Data as given in publication PMC6933707, “Palmitoylethanolamide counteracts substance P-induced mast cell activation in vitro by stimulating diacylglycerol lipase activity” (Journal of Neuroinflammation, 2019).

Tests used:
human recombinant DAGL-α = target: T1, human recombinant DAGL-α (Homo sapiens, UniProt Q9Y4D2); experiment: DAGL-α enzyme activity assay (COS-7 membranes; radiolabelled substrate or 2-AG by LC-MS); type: biochemical
T1 construct: expressed in transfected cells; host or cells: COS-7
T1 sequence (Q9Y4D2 1-1042): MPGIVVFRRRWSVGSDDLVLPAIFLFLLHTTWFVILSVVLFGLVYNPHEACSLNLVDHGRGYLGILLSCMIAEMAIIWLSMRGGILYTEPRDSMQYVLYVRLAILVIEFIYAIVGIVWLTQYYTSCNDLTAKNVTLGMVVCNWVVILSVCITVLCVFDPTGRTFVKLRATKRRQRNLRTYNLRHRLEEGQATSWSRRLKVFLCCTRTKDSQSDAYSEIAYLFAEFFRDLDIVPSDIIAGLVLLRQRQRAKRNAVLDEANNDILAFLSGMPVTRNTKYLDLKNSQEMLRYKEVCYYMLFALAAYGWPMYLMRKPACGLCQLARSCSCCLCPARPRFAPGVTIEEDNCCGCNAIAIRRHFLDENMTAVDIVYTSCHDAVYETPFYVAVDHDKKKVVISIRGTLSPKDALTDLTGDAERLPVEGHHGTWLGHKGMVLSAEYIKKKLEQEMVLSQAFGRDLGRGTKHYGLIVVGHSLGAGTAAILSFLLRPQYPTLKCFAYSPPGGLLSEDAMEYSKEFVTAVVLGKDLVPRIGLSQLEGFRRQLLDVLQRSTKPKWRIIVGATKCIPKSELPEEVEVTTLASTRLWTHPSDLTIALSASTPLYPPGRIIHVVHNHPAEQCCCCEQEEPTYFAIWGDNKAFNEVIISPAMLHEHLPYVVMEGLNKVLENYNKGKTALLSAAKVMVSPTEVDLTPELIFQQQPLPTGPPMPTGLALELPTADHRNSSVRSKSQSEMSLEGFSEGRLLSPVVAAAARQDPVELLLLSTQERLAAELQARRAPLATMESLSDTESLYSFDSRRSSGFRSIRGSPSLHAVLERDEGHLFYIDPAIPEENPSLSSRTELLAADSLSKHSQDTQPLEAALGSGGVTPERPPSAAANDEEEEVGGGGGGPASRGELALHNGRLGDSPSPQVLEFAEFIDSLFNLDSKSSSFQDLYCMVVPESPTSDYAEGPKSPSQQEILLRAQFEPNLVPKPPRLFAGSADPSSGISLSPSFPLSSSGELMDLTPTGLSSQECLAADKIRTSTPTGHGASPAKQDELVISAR
Description: DAGL-α enzyme activity was assessed as previously reported by using membrane preparations (50 μg of protein) obtained from COS-7 cells overexpressing the human recombinant DAGL-α enzyme, and 1-[^14C]oleoyl-2-arachidonoylglycerol (1.0 mCi/mmol, 25 μM, synthesized as previously reported, as substrate in the presence of vehicle or increasing concentrations of PEA (0.1–25 μM) in Tris-HCl 50 mM pH 7.4. After the incubation (20 min at 37 °C), lipids were extracted with two volumes of CHCl3/CH3OH (2:1, v/v). The organic extracts, lyophilized under vacuum, were used to quantify the levels of 2-AG by LC-APCI-MS (as described above), or purified by using TLC on silica on polypropylene plates eluted in CHCl3/CH3OH/NH4OH (85:15:0.1%, v/v) as the eluting solvent. Bands corresponding to [^14C]-oleic acid were cut and their radioactivity was measured by using Liquid Scintillation Analyzer (TRI-carb 2100TR). Data were expressed as % of DAGL-α stimulation. To quantify the levels of 2-AG by LC-APCI-MS a non-radiolabeled 1-oleoyl-2-arachidonoylglycerol substrate was used.

human CB2 receptor = human CB2 receptor (Homo sapiens, UniProt P34972); experiment: cAMP Hunter functional activity assay at the CB2 receptors; type: cell-based; parameters: host or cells: CHO-K1; details: 10 μM, highest concentration tested, CHO-K1 cells overexpressing human CB2
Sequence of human CB2 receptor (P34972 whole entry): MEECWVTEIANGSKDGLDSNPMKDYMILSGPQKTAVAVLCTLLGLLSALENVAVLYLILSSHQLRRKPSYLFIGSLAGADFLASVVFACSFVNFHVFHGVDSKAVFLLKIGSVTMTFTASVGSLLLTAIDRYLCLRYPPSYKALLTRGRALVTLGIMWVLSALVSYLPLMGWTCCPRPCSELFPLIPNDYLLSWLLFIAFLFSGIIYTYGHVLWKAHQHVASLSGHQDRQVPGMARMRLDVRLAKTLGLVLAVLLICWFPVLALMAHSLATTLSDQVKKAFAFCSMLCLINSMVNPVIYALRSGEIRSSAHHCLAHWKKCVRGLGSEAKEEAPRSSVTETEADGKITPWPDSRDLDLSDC
Description: The cAMP Hunter™ eXpress G protein-coupled receptor (GPCR) assay was performed in Chinese Hamster Ovary (CHO)-Kl cells overexpressing the human CB2 receptor. Gi-coupled cAMP modulation was measured following the manufacturer’s protocol (DiscoverX, Fremont, CA). CHO-K1 cells overexpressing the human CB2 receptor were plated into a 96-well plate (3× 10^4 cells/well) and incubated overnight at 37 °C in 5% CO2 atmosphere. The media were aspirated and replaced with 30 μl of assay buffer. Cells were incubated 30 min at 37 °C with 15 μl of 3× concentration-response solutions of 2-AG (0.01–50 μM), or PEA (10 μM), prepared in presence of cell assay buffer containing a 3× of 25 μM NKH-477 solution (a water-soluble analog of Forskolin) to stimulate adenylate cyclase and enhance basal cAMP levels. We also investigated the effect of PEA on 2-AG receptor activation by co-incubation. Therefore, cells were also incubated 30 min at 37 °C with 2-AG and PEA (10 μM) in the presence of NKH-477 to stimulate adenylate cyclase and enhance cAMP levels. […] Relative luminescence units (RLU) were measured by using a GloMax Multi Detection System (Promega Italia). […] The percentage of response was calculated by using the following formula: % RESPONSE = 100% × (1-(RLU of test compound-RLU of NKH-477 positive control)/(RLU of vehicle-RLU of NKH-477 positive control).

## CCCCCCCCCCCCCCCC(=O)NCCO [PEA, Palmitoylethanolamide]
Human recombinant DAGL-α; PEA 25 μM + substrate, compared to membrane preparations incubated alone (no substrate, no PEA)
  elevation of levels of 2-AG produced by DAGL-α (LC-MS): 5.6 fold
Human recombinant DAGL-α; PEA 25 μM, compared to membrane preparations incubated with the substrate 1-oleoyl-2-arachidonoylglycerol and without PEA
  elevation of levels of 2-AG produced by DAGL-α (LC-MS): 1.4 fold
Human recombinant DAGL-α; membranes of COS-7 cells over-expressing DAGL-α, 20 min 37 °C, read-out: EC50, stimulation of DAGL-α activity
  EC50: 17.3 ± 2.35 µM
Human CB2 receptor
  effect on NKH-477-induced cAMP levels (CB2 activation): failed at decreasing cAMP levels
